pEC50: −log10 of the molar value. Counter-ions that a name gives are not always drawn.
System: CuFi-1 cells
Assay: Secretory activity for chloride ions (MQAE fluorescence) in CuFi-1 cells
Type: cell-based
Settings: Homo sapiens, CuFi-1, CuFi-1 cells, zinc final concentration 10 μM
Experimental: Measurement of the secretory activity for chloride ions was performed in accordance with a previous report (West and Molloy, 1996). CuFi-1 cells were plated on a 96 well plate in 3×10^4 cells/well and incubated for two nights. After removing the culture medium, 100 μL/well of N-(ethoxycarbonylmethyl)-6-methoxyquinolinium bromide (MQAE) (diluted with culture medium and the concentration adjusted to 5 mM) was added. After the addition of MQAE, the cells were incubated for one night so that the indicator was passively loaded. After the loading, the cells were washed two times with Assay buffer, and 100 μL/well of Assay buffer was added. The secretory capacity for chloride ions was measured using FlexStation 1 (fluorescence wavelength of Ex: 355 nm/Em: 460 nm). In order to measure the basic value, nothing was added for 34 seconds immediately after the start of the measurement. Then, at this point, 100 μL/well of the test compound and zinc (final concentration: 10 μM) diluted with Assay buffer, which is free of chloride ions, was added, and the measurement was continued for 86 seconds (total measurement time: 120 seconds). The secretory capacity for chloride ions was calculated by dividing the average of RFU values in 10 seconds between 110 seconds and 120 seconds after the start of the measurement with the average between 0 second and 34 seconds (the basic value). The secretory activity for chloride ions of the test compound (EC50 value) was calculated by obtaining the secretory capacity for chloride ions at each concentration of the serially diluted test compound, and determining a concentration of the test compound that provides a secretory capacity of 50% from two secretory capacities and concentrations sandwiching 50% of the maximum response of each compound.

SMILES | pEC50
COc1nc(C(=O)O)nc(C(C)C)c1Cc1ccc(Cl)cc1Cl [Example 71] | 7.52
COc1nc(C(=O)O)nc(C(C)C)c1Cc1ccc(C(F)(F)F)cc1Cl [Example 72] | 8.59
COc1nc(C(=O)O)nc(C)c1Cc1ccccc1C(C)C [Example 73] | 7.45
Cc1nc(C(=O)O)nc(OC(C)C)c1Cc1ccccc1Cl [Example 74, 5-(2-Chlorobenzyl)-4-isopropoxy-6-methylpyrimidine-2-carboxylic acid] | 7.48
CSc1nc(C(=O)O)nc(C)c1Cc1ccc(Cl)cc1Cl [Example 75, 5-(2,4-Dichlorobenzyl)-4-methyl-6-(methylthio)pyrimidine-2-carboxylic acid] | 8.43
CSc1nc(C(=O)O)nc(C)c1Cc1ccccc1Cl [Example 76] | 7.82
CCc1nc(C(=O)O)nc(SC)c1Sc1ccc(Cl)cc1Cl [Example 77] | 7.84
CCc1nc(C(=O)O)nc(SC)c1Cc1ccccc1Cl [Example 78] | 8.34
CCSc1nc(C(=O)O)nc(C)c1Cc1ccc(Cl)cc1Cl [Example 79, 5-(2,4-Dichlorobenzyl)-4-(ethylthio)-6-methylpyrimidine-2-carboxylic acid] | 8.18
CCSc1nc(C(=O)O)nc(C)c1Oc1ccc(Cl)cc1Cl [Example 80] | 7.31
CCSc1nc(C(=O)O)nc(C)c1Cc1ccc(C#N)cc1Cl [Example 81] | 8.26
Cc1nc(C(=O)O)nc(SCCO)c1Sc1ccc(Cl)cc1Cl [Example 82] | 7.51
Cc1nc(C(=O)O)nc(SC(C)C)c1Sc1ccccc1Cl [Example 83, 5-((2-Chlorophenyl)thio)-4-(isopropylthio)-6-methylpyrimidine-2-carboxylic acid hydrochloride] | 7.29
Cc1nc(C(=O)O)nc(SC(C)C)c1Cc1ccccc1Cl [Example 84] | 7.98
CSc1nc(C(=O)O)nc(C)c1Nc1ccccc1Cl [Example 85, 5-((2-Chlorophenyl)amino)-4-methyl-6-(methylthio)pyrimidine-2-carboxylic acid hydrochloride] | 7.52
CCNc1nc(C(=O)O)nc(C)c1Nc1ccccc1Cl [Example 86, 5-((2-Chlorophenyl)amino)-4-(ethylamino)-6-methylpyrimidine-2-carboxylic acid hydrochloride] | 7.88
CNc1nc(C(=O)O)nc(C)c1Cc1ccccc1Cl [Example 87, 5-(2-Chlorobenzyl)-4-methyl-6-(methylamino)pyrimidine-2-carboxylic acid] | 8.09
Cc1nc(C(=O)O)nc(Cc2ccccc2Cl)c1Cc1ccccc1Cl [Example 88, 4,5-Bis(2-chlorobenzyl)-6-methylpyrimidine-2-carboxylic acid] | 8.15
Cc1nc(C(=O)O)nc(O[C@H]2C[C@H](C#N)C2)c1Cc1ccccc1Cl [Example 91] | 7.88
Cc1nc(C(=O)O)nc(O[C@H]2C[C@@H](C#N)C2)c1Cc1ccccc1Cl [Example 92] | 8.29
Cc1nc(C(=O)O)nc(C)c1Cc1ccccc1Cl [Example 103, 5-(2-Chlorobenzyl)-4,6-dimethylpyrimidine-2-carboxylic acid] | 7.68
Cc1nc(C(=O)O)nc(C)c1Cc1ccc(Cl)cc1Cl [Example 104] | 8.00
CNc1nc(-c2nnn[nH]2)nc(C)c1Cc1ccc(Cl)cc1Cl [Example 105, 5-(2,4-Dichlorobenzyl)-N,6-dimethyl-2-(1H-tetrazol-5-yl)pyrimidin-4-amine] | 8.68
CNc1nc(-c2nnn[nH]2)nc(C)c1Sc1ccc(Cl)cc1Cl [Example 106] | 8.54

Now from value to compound:

pEC50 | SMILES
8.29 | Cc1nc(C(=O)O)nc(OCc2cccc(C#N)c2)c1Cc1ccccc1Cl [Example 89, 5-(2-Chlorobenzyl)-4-((3-cyanobenzyl)oxy)-6-methylpyrimidine-2-carboxylic acid]
8.19 | Cc1nc(C(=O)O)nc(OCc2ccccc2)c1Cc1ccccc1Cl [Example 90]
8.66 | Cc1nc(C(=O)O)nc(OCc2cccnc2)c1Cc1ccccc1Cl [Example 93]
8.66 | Cc1nc(C(=O)O)nc(OCc2ccncc2)c1Cc1ccccc1Cl [Example 94]
8.48 | Cc1nc(C(=O)O)nc(OCc2ccccn2)c1Cc1ccccc1Cl [Example 95]
8.62 | Cc1ccc(COc2nc(C(=O)O)nc(C)c2Cc2ccccc2Cl)cn1 [Example 96]
8.24 | Cc1nc(C(=O)O)nc(OCc2ccc(F)cc2)c1Cc1ccccc1Cl [Example 97]
7.87 | Cc1nc(C(=O)O)nc(OCc2cccc(F)c2)c1Cc1ccccc1Cl [Example 98]
8.29 | Cc1nc(C(=O)O)nc(OCc2ccccc2F)c1Cc1ccccc1Cl [Example 99]
7.95 | Cc1nc(C(=O)O)nc(OCc2ccc(F)cc2F)c1Cc1ccccc1Cl [Example 100]
8.05 | Cc1nc(C(=O)O)nc(CCc2ccncc2)c1Cc1ccccc1Cl [Example 101, 5-(2-Chlorobenzyl)-4-methyl-6-(2-(pyridin-4-yl)ethyl)pyrimidine-2-carboxylic acid]
8.28 | Cc1nc(C(=O)O)nc(CCc2cccnc2)c1Cc1ccccc1Cl [Example 102]

From US11034659B2, “Pyrimidine derivative” (Daiichi Sankyo Company, Limited, priority 2016, dated 2021)
